Laboratory results: paper PMC10733197, “Utilization of Rosuvastatin and Endogenous Biomarkers in Evaluating the Impact of Ritlecitinib on BCRP, OATP1B1, and OAT3 Transporter Activity” (Pharmaceutical Research, 2023)
Values joined by “and” are separate entries in the source; they are usually repeats but may differ in a detail not shown here. Identical values can stand only once.

Tests used:
OAT3 = target: T1, OAT3 (Homo sapiens, UniProt Q8TCC7); assay: OAT3-mediated 3H-E3S uptake inhibition in transfected HEK293 cells; type: cell-based; conditions: for Fraction Inhibited / Triggers Drug Interaction Cutoff / Cmax,u/IC50 ratio: OAT3; for Fraction Inhibited: Cmax,u/(Cmax,u + IC50) (Eq. 2); for Triggers Drug Interaction Cutoff: Cmax,u/IC50 cutoff 0.1 (FDA); for Triggers Drug Interaction Cutoff / Cmax,u/IC50 ratio: 0.02 (EMA); for Cmax,u/IC50 ratio: cutoff 0.1 (FDA), ritlecitinib 200 mg; for IC50: renal OAT3, E3S as substrate (0.1 µM per table footnote), 3 min, HEK293, mean ± SD, n = 3
T1 construct: expressed in transfected cells; host or cells: HEK293
T1 sequence (Q8TCC7 1-542): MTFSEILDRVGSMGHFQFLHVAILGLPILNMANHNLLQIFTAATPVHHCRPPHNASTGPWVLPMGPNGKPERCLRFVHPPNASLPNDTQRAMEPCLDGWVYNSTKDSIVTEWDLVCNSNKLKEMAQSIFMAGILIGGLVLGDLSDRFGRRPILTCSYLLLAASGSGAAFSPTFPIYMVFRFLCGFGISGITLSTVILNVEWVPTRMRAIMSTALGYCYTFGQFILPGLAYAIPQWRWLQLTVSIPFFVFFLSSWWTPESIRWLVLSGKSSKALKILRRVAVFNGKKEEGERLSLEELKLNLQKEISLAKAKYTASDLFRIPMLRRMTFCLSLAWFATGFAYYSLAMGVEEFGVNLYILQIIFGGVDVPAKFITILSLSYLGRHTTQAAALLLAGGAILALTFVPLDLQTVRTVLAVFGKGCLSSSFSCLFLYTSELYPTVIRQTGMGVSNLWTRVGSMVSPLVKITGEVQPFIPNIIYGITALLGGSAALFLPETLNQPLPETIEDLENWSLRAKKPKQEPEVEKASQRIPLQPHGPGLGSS
Protocol: (§1) Sources of human embryonic kidney (HEK) 293 cells expressing individual transfected human solute carriers (SLC), test substrates, and cell culture reagents, as well as detailed cell culture methods, incubations, and sample processing, have been described previously. SLC included hepatic OATP1B1, OATP1B3, and renal OAT1 and OAT3. […] Likewise, the uptake of non-labeled rosuvastatin (Biosynth, San Diego, CA) at 0.3—0.5 µM was determined for OATP1B1 and OATP1B3 at 1—3 min, and CP-I (Frontier Specialty Chemicals, Logan, UT) at 0.1 µM was determined for OATP1B1 and OATP1B3 at 10 min [14].
(§2) In all cases, ritlecitinib (0.018 to 1000 µM) and metabolite M2 (0.018 to 300 µM) was tested over a wide range of final concentrations dissolved in dimethyl sulfoxide (the final concentration of dimethyl sulfoxide in the assays was 1% v/v). For each transporter, the IC50 was estimated using a four-parameter logistic equation (Eq. 1) using GraphPad Prism software (GraphPad Software Inc, La Jolla, CA).1 %UptakeActivity=Bottom+(Top-Bottom)/1+10^(LogIC50-inhib*HillSlope)
(§3) At the end of the uptake and inhibition experiment, cellular accumulation of ^3H-PAH and ^3H-E3S was determined using liquid scintillation counting as previously described. Rosuvastatin uptake was determined using a tandem high performance liquid chromatography (LC)-mass spectrometry (MS) assay.
(§4) Assumes no substrate-dependent shift in IC50 versus PDA.^1 Each OAT form was singularly transfected in human embryonic kidney 293 cells.

[1] = Inhibitor exposure estimates and PK inputs for static drug interaction risk assessment; conditions: for Cmax,u: maximal free plasma concentration (Cmax × fu) at ritlecitinib 200 mg
OATP1B1 = target: T2, OATP1B1 (Homo sapiens, UniProt Q9Y6L6); assay: OATP1B1-mediated rosuvastatin uptake inhibition in transfected HEK293 cells; type: cell-based; conditions: for IC50: hepatic OATP1B1, RSV 0.3–0.5 µM as substrate, 1—3 min, HEK293, mean ± SD, n = 3; for R-value: 1 + (Imax,inlet,u/IC50), cutoff 1.1 (FDA), 1.04 (EMA)
T2 construct: expressed in transfected cells; host or cells: HEK293
T2 sequence (Q9Y6L6 1-691): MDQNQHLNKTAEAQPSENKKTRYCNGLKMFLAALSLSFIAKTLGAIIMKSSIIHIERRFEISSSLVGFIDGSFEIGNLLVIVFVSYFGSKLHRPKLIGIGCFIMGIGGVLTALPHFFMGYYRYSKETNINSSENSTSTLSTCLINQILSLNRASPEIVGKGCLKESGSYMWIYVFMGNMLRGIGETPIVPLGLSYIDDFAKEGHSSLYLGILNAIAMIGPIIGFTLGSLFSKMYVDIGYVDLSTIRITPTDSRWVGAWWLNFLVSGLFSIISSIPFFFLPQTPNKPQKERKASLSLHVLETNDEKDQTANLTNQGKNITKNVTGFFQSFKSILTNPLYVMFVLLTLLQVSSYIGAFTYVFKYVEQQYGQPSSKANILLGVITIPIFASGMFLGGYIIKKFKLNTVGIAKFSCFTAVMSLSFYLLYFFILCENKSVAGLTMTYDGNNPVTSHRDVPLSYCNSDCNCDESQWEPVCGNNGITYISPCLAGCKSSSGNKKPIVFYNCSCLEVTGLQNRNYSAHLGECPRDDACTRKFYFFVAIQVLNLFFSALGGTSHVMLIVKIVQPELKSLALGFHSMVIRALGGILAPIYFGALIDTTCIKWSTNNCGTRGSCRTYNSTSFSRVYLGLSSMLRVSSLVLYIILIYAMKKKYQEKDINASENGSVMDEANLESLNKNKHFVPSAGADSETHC
Protocol: as §1, §2, §3

OAT1 = target: T3, OAT1 (Homo sapiens, UniProt Q4U2R8); assay: OAT1-mediated 3H-PAH uptake inhibition in transfected HEK293 cells; type: cell-based; design: expressed in transfected cells; host or cells: HEK293; conditions: for Fraction Inhibited / Triggers Drug Interaction Cutoff / Cmax,u/IC50 ratio: OAT1; for Fraction Inhibited: Cmax,u/(Cmax,u + IC50) (Eq. 2); for Triggers Drug Interaction Cutoff: Cmax,u/IC50 cutoff 0.1 (FDA); for Triggers Drug Interaction Cutoff / Cmax,u/IC50 ratio: 0.02 (EMA); for Cmax,u/IC50 ratio: cutoff 0.1 (FDA), ritlecitinib 200 mg; for IC50: renal OAT1, PAH 0.5 µM as substrate, 4 min, HEK293, mean ± SD, n = 3
T3 sequence (Q4U2R8 1-563): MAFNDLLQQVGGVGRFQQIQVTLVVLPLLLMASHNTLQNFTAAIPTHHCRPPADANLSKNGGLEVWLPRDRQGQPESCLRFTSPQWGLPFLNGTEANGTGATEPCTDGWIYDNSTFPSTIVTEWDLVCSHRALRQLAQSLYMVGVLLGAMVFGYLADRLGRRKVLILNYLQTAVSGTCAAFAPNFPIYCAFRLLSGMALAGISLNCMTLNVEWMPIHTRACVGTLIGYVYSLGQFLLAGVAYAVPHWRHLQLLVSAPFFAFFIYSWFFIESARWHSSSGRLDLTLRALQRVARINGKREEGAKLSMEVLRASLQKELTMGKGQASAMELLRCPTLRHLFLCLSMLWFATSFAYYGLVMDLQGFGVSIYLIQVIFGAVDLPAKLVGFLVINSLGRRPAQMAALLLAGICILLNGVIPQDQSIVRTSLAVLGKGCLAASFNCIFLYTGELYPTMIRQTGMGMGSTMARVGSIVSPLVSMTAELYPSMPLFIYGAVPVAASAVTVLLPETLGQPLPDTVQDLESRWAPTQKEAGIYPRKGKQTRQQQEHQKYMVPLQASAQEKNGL
Protocol: as §1, §2, §3, §4

| Fraction Inhibited (OAT3) | Triggers Drug Interaction Cutoff (OAT3) | Cmax,u/IC50 ratio (OAT3) | IC50 (OAT3) | Cmax,u [1] | Triggers Drug Interaction Cutoff (OATP1B1; OATP1B1 (RSV)) | IC50 (OATP1B1) | Fraction Inhibited (OAT1) | Triggers Drug Interaction Cutoff (OAT1) | Cmax,u/IC50 ratio (OAT1) | IC50 (OAT1) | SMILES | other results |
| --- | --- | --- | --- | --- | --- | --- | --- | --- | --- | --- | --- | --- |
| < 0.01 | No | < 0.01 | > 300 µM | 1.4 μM and 1.4^j μM | Yes | 2 ± 0.03 µM | < 0.01 | No | < 0.01 | > 300 µM | C[C@H]1CC[C@@H](Nc2ncnc3[nH]ccc23)CN1C(=O)CCSC[C@H](N)C(=O)O [M2] | % inhibition at the highest concentration tested (OAT3; OAT3 (E3S), highest concentration 300 µM): 43%; Cmax,u/IC50 ratio (OATP1B1; OATP1B1 (RSV), Cmax,u used for metabolite M2): 0.70; Fraction Inhibited (OATP1B1; OATP1B1 (RSV), Cmax,u/(Cmax,u + IC50) for M2 (Eq. 3)): 0.4; % inhibition at the highest concentration tested (OAT1; OAT1 (PAH), highest concentration 300 µM): 40% |
| 0.1 | Yes | 0.11 | 41 ± 3 µM | 4.7 µM | Yes | 312 ± 19 µM | 0.03 | Yes | 0.03 | 156 ± 6 µM | C=CC(=O)N1C[C@H](Nc2ncnc3[nH]ccc23)CC[C@@H]1C [Ritlecitinib, ritlecitinib] | Fraction Inhibited (OAT3; listed as ritlecitinib): ≤ 0.1; Imax,inlet,u ([1]; estimated maximal free hepatic portal concentration, ritlecitinib 200 mg): 31.7 µM; [I]2 ([1]; oral molar dose of ritlecitinib (200 mg)/250 mL): 2803 µM; R-value (OATP1B1; OATP1B1 (RSV)): 1.10; R-value (OATP1B1; OATP1B1 (RSV), listed as ritlecitinib): 1.1; Fraction Inhibited (OATP1B1; OATP1B1 (RSV), Imax,inlet,u/(Imax,inlet,u + IC50) (Eq. 1)): 0.09; Fraction Inhibited (OATP1B1; OATP1B1 (RSV), Imax,inlet,u/(Imax,inlet,u + IC50) (Eq. 1), listed as ritlecitinib): ≤ 0.1; Fraction Inhibited (OAT1; listed as ritlecitinib): ≤ 0.1 |
